Read-outs that look alike come from different tables or passages of the source. Marks after values point to notes of the source that are not given here.
Assays:
[1] = Combinatory PNL formulations with cyclosporine (2.2.1); assay type: physicochemical; conditions: for dissolution in the cyclosporine formulation: 50 and 100 mg added to cyclosporine solution, visual, after refrigeration
Experimental: The mixtures were examined visually for complete dissolution, precipitation after 24 hours at refrigeration and for particle size when added to water.
The particle size of the formulations, when added to water, was above 100 nm, compared to the original formulation, as determined by transmission UV at 550 nm turbidity test.
Extensive testing and adjustments were required to design a formulation that could fit two or more agents in a single formulation.

[2] = Preliminary screening for maximum CBD loading; assay type: physicochemical
[3] = Experimental: Formulations prepared by mixing the dry solid powder of the tested compound in either the blank formulation to form 5% w/v or in a formulation already containing 5% w/w CBD. Particle size was determined by particle size analyzer.

Compound | appearance in the cyclosporine solution ([1]; CBD at 50 mg) | maximum CBD load allowing formation of clear solution [2] | PDI ([3]; 3 hr after dissolution) | Particle size ([3]; 3 hr after dissolution) | Visual ([3]; 3 hr after dissolution) | PDI ([3]; after 13 days in 4 C) | Particle size ([3]; after 13 days in 4 C) | Visual ([3]; after 13 days in 4 C) | dissolution in the cyclosporine formulation [1] | Solubility in PNL with 5% CBD [3]
C=C(C)[C@@H]1CCC(C)=C[C@H]1c1c(O)cc(CCCCC)cc1O [CBD, Cannabidiol] | clear solution | 10-12.5% | – | – | – | – | – | – | – | –
O=C(N[C@H](CO)[C@H](O)c1ccc([N+](=O)[O-])cc1)C(Cl)Cl [Chloramphenicol] | – | – | 0.118 | 30.03 nm | clear | 0.172 | 29.64 nm | clear | – | –
CC(=O)O[C@H]1C(=O)[C@@]2(C)[C@H]([C@H](OC(=O)c3ccccc3)[C@]3(O)C[C@H](OC(=O)[C@H](O)[C@@H](NC(=O)c4ccccc4)c4ccccc4)C(C)=C1C3(C)C)[C@]1(OC(C)=O)CO[C@@H]1C[C@@H]2O [Paclitxel] | – | – | – | ~50 nm | clear | – | – | precipitate | did not fully dissolve | ~
C[C@@H]1[C@H](O)[C@@H](C)/C=C/C=C/C=C/C=C/C=C/C=C/C=C/[C@H](O[C@@H]2O[C@H](C)[C@@H](O)[C@H](N)[C@@H]2O)C[C@@H]2O[C@](O)(C[C@@H](O)C[C@@H](O)[C@H](O)CC[C@@H](O)C[C@@H](O)CC(=O)O[C@H]1C)C[C@H](O)[C@H]2C(=O)O [Amphitericin B] | – | – | – | – | – | – | – | – | did not fully dissolve | –
CC(C)Cc1ccc(C(C)C(=O)O)cc1 (centres unmarked) [Ibuprofen] | – | – | 0.398 | 74.28 nm | clear | 0.367 | 67.86 nm | clear | – | –
CCOC(=O)c1ccc(N)cc1 [Benzocaine] | – | – | 0.449 | 62.22 nm | clear | 0.479 | 65.82 nm | clear | – | –
CC(C)CCC[C@@H](C)[C@H]1CC[C@H]2[C@@H]3CC=C4C[C@@H](O)CC[C@]4(C)[C@H]3CC[C@]12C [Cholesterol] | – | – | 0.487** | 96.43 nm | turbid | 0.516 | 86.94 nm | turbid | – | –

— patent US20180325861A1, “NOVEL CANNABINOID FORMULATIONS” (priority 2015, published 2018)
